# pKi: −log10 of the molar value.
# Biological target: human capsaicin receptor (VR1) (Homo sapiens, UniProt Q8NER1)
# Test: Capsaicin receptor binding assay ([3H]RTX competition, VR1-transfected HEK293 membranes)
# human capsaicin receptor (VR1), sequence (Q8NER1 whole entry): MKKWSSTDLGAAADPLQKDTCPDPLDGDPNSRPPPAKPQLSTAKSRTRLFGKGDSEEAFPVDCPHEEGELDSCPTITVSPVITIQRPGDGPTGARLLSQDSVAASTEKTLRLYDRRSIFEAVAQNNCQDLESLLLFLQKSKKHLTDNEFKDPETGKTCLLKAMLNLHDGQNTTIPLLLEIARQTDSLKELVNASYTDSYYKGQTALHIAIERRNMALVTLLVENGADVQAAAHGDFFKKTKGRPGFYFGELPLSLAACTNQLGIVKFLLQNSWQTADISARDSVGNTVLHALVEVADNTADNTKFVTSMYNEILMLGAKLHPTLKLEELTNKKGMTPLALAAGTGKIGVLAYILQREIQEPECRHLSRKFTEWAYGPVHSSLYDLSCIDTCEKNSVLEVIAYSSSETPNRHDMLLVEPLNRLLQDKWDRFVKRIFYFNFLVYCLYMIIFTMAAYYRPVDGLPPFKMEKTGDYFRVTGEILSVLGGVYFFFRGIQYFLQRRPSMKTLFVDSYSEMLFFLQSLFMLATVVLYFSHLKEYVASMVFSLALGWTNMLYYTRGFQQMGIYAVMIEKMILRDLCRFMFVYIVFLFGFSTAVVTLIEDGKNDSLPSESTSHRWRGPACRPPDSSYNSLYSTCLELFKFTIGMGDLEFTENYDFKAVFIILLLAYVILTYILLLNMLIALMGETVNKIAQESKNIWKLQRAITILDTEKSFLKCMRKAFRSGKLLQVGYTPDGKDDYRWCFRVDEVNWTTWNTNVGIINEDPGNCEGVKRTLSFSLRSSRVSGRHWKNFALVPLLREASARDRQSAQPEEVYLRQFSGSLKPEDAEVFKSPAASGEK
row,pKi,Compound
1,> 6.00,"CCOC(=O)c1nc(Nc2ccc(C(F)(F)F)cc2)c2ccc(-c3ncccc3C(F)(F)F)cc2n1 [Compound 99, 4-(4-Trifluoromethyl-phenylamino)-7-(3-trifluoromethyl-pyridin-2-yl)-quinazoline-2-carboxylic acid ethyl ester]"
2,> 6.00,"O=C(O)c1nc(Nc2ccc(C(F)(F)F)cc2)c2ccc(-c3ncccc3C(F)(F)F)cc2n1 [Compound 100, 4-(4-Trifluoromethyl-phenylamino)-7-(3-trifluoromethyl-pyridin-2-yl)-quinazoline-2-carboxylic acid]"
3,> 6.00,"CC(C)c1ccc(Nc2nc(COC3CCOCC3)nc3cc(-c4ncccc4C(F)(F)F)ccc23)cc1 [Compound 101, (4-Isopropyl-phenyl)-[2-(tetrahydro-pyran-4-yloxymethyl)-7-(3-trifluoromethyl-pyridin-2-yl)-quinazolin-4-yl]-amine]"
4,> 6.00,"FC(F)(F)c1ccc(Nc2nc(COC3CCOCC3)nc3cc(-c4ncccc4Cl)ccc23)cc1 [Compound 102, [7-(3-Chloro-pyridin-2-yl)-2-(tetrahydro-pyran-4-yloxymethyl)-quinazolin-4-yl]-(4-trifluoromethyl-phenyl)-amine]"
5,> 6.00,"CC(C)c1ccc(Nc2nc(COC3CCOCC3)nc3cc(-c4ncccc4Cl)ccc23)cc1 [Compound 103, [7-(3-Chloro-pyridin-2-yl)-2-(tetrahydro-pyran-4-yloxymethyl)-quinazolin-4-yl]-(4-isopropyl-phenyl)-amine]"
6,> 6.00,"CCOCc1nc(Nc2ccc(C(C)C)cc2)c2ccc(-c3ncccc3C)cc2n1 [Compound 104, [2-Ethoxymethyl-7-(3-methyl-pyridin-2-yl)-quinazolin-4-yl]-(4-isopropyl-phenyl)-amine]"
7,> 6.00,"Cc1cccnc1-c1ccc2c(Nc3ccc(C(C)C)cc3)nc(COC(C)C)nc2c1 [Compound 105, [2-Isopropoxymethyl-7-(3-methyl-pyridin-2-yl)-quinazolin-4-yl]-(4-isopropyl-phenyl)-amine]"
8,> 6.00,"Cc1cccnc1-c1ccc2c(Nc3ccc(C(C)C)cc3)nc(COC3CCOCC3)nc2c1 [Compound 106, (4-Isopropyl-phenyl)-[7-(3-methyl-pyridin-2-yl)-2-(tetrahydro-pyran-4-yloxymethyl)-quinazolin-4-yl]-amine]"
9,> 6.00,"COCc1nc(Nc2ccc(C(C)(C)C)cc2)c2ccc(-c3ncccc3C(F)(F)F)nc2n1 [Compound 107, (4-tert-Butyl-phenyl)-[2-methoxymethyl-7-(3-trifluoromethyl-pyridin-2-yl)-pyrido[2,3-d]pyrimidin-4-yl]-amine]"
10,> 6.00,"COCc1nc(Nc2ccc(C(C)C)cc2)c2ccc(-c3ncccc3C(F)(F)F)nc2n1 [Compound 108, (4-Isopropyl-phenyl)-[2-methoxymethyl-7-(3-trifluoromethyl-pyridin-2-yl)-pyrido[2,3-d]pyrimidin-4-yl]-amine]"
11,> 6.00,"COCc1nc(Nc2ccc(C(F)(F)F)cc2)c2ccc(-c3ncccc3C(F)(F)F)nc2n1 [Compound 109, [2-Methoxymethyl-7-(3-trifluoromethyl-pyridin-2-yl)-pyrido[2,3-d]pyrimidin-4-yl]-(4-trifluoromethyl-phenyl)-amine]"
12,> 6.00,"COCc1nc(Nc2ccc(C3CCCC3)cc2)c2ccc(-c3ncccc3C(F)(F)F)nc2n1 [Compound 110, (4-Cyclopentyl-phenyl)-[2-methoxymethyl-7-(3-trifluoromethyl-pyridin-2-yl)-pyrido[2,3-d]pyrimidin-4-yl]-amine]"
13,> 6.00,"COCc1nc(Nc2ccc(S(C)(=O)=O)cc2)c2ccc(-c3ncccc3C(F)(F)F)nc2n1 [Compound 112, (4-Methanesulfonyl-phenyl)-[2-methoxymethyl-7-(3-trifluoromethyl-pyridin-2-yl)-pyrido[2,3-d]pyrimidin-4-yl]-amine]"
14,> 6.00,"COCc1nc(Nc2ccc(S(=O)(=O)C(F)(F)F)cc2)c2ccc(-c3ncccc3C(F)(F)F)nc2n1 [Compound 113, [2-Methoxymethyl-7-(3-trifluoromethyl-pyridin-2-yl)-pyrido[2,3-d]pyrimidin-4-yl]-(4-trifluoromethanesulfonyl-phenyl)-amine]"
15,> 6.00,"COCc1nc(Nc2ccc(S(=O)(=O)N3CCOCC3)cc2)c2ccc(-c3ncccc3C(F)(F)F)nc2n1 [Compound 114, [2-Methoxymethyl-7-(3-trifluoromethyl-pyridin-2-yl)-pyrido[2,3-d]pyrimidin-4-yl]-[4-(morpholine-4-sulfonyl)-phenyl]-amine]"
16,> 6.00,"CCN(CC)CCCOCc1nc(Nc2ccc(C(F)(F)F)cc2)c2ccc(-c3ncccc3C(F)(F)F)cc2n1 [Compound 115, [2-(3-Diethylamino-propoxymethyl)-7-(3-trifluoromethyl-pyridin-2-yl)-quinazolin-4-yl]-(4-trifluoromethyl-phenyl)-amine]"
17,> 6.00,"CN(C)CCCOCc1nc(Nc2ccc(C(C)(C)C)cc2)c2ccc(-c3ncccc3C(F)(F)F)cc2n1 [Compound 116, (4-tert-Butyl-phenyl)-[2-(3-dimethylamino-propoxymethyl)-7-(3-trifluoromethyl-pyridin-2-yl)-quinazolin-4-yl]-amine]"
18,> 6.00,"CCN(CC)CCCOCc1nc(Nc2ccc(C(C)(C)C)cc2)c2ccc(-c3ncccc3C(F)(F)F)cc2n1 [Compound 117, (4-tert-Butyl-phenyl)-[2-(3-diethylamino-propoxymethyl)-7-(3-trifluoromethyl-pyridin-2-yl)-quinazolin-4-yl]-amine]"
19,> 6.00,"COCc1nc(Nc2ccc(C3CC3)cc2)c2ccc(-c3ncccc3C(F)(F)F)cc2n1 [Compound 118, (4-Cyclopropyl-phenyl)-[2-methoxymethyl-7-(3-trifluoromethyl-pyridin-2-yl)-quinazolin-4-yl]-amine]"
20,> 6.00,"Cc1cccnc1-c1ccc2c(Nc3ccc(C(F)(F)F)cc3)nc(CO)nc2n1 [Compound 119, [7-(3-Methyl-pyridin-2-yl)-4-(4-trifluoromethyl-phenylamino)-pyrido[2,3-d]pyrimidin-2-yl]-methanol]"
21,> 6.00,"COCc1nc(Nc2ccc(S(=O)(=O)N3CCOCC3)cc2)c2ncc(-c3ncccc3Cl)cc2n1 [Compound 120, [7-(3-Chloro-pyridin-2-yl)-2-methoxymethyl-pyrido[3,2-d]pyrimidin-4-yl]-[4-(morpholine-4-sulfonyl)-phenyl]-amine]"
22,> 6.00,"OCc1nc(Nc2ccc(C(F)(F)F)cc2)c2ncc(-c3ncccc3C(F)(F)F)cc2n1 [Compound 121, [4-(4-Trifluoromethyl-phenylamino)-7-(3-trifluoromethyl-pyridin-2-yl)-pyrido[3,2-d]pyrimidin-2-yl]-methanol]"
23,> 6.00,"OCc1nc(Nc2ccc(C(F)(F)F)cc2)c2ncc(-c3ncccc3Cl)cc2n1 [Compound 122, [7-(3-Chloro-pyridin-2-yl)-4-(4-trifluoromethyl-phenylamino)-pyrido[3,2-d]pyrimidin-2-yl]-methanol]"

row,Compound,pKi
1,"CN(C)CCCCOCc1nc(Nc2ccc(C(C)(C)C)cc2)c2ccc(-c3ncccc3C(F)(F)F)cc2n1 [Compound 111, (4-tert-Butyl-phenyl)-[2-(4-dimethylamino-butoxymethyl)-7-(3-trifluoromethyl-pyridin-2-yl)-quinazolin-4-yl]-amine]",> 6.00
